ChEMBL document CHEMBL2069290, “Synthesis and biological evaluation of novel oxindole derivatives for imaging neurofibrillary tangles in Alzheimer's disease” (Bioorg Med Chem Lett, 2012)
The source made the active and inactive calls. The calls are words filed in the database; no cut-off is given here.

Molecular target: Amyloid-beta precursor protein (Homo sapiens, UniProt P05067)
Assay: Binding affinity to amyloid beta(1 to 42) aggregates after 30 mins by Thioflavin-S-based fluorescence assay

Sequence of Amyloid-beta precursor protein (P05067 whole entry): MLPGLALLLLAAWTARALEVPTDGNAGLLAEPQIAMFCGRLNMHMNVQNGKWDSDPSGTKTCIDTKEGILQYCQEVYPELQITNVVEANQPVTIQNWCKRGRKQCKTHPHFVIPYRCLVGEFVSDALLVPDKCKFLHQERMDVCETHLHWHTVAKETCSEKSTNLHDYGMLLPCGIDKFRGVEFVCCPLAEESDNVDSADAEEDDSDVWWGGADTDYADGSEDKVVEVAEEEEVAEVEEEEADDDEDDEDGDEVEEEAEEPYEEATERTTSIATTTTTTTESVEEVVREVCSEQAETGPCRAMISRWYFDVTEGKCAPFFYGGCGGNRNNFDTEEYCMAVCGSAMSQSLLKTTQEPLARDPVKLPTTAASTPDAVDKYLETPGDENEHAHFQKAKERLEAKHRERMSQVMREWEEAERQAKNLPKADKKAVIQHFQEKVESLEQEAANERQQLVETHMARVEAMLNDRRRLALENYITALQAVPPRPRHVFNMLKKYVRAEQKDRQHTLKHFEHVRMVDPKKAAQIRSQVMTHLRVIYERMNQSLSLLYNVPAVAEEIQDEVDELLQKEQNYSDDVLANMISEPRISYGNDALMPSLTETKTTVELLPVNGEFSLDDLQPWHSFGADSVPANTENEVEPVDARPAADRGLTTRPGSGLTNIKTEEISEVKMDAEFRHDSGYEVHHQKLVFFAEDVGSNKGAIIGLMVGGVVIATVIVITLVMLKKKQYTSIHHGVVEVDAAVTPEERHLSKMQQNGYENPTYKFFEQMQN

| Ki [µM] | SMILES |
| --- | --- |
| 4.67 | CN(C)c1ccc(C=C2C(=O)Nc3ccc(I)cc32)cc1 |
| 0.116 | CNc1ccc(/C=C2\Nc3ccc(I)cc3C2=O)cc1 |
| 5.06 | CNc1ccc(C=C2C(=O)Nc3ccc(I)cc32)cc1 |
| 0.031 | CN(C)c1ccc(/C=C2\Nc3ccc(I)cc3C2=O)cc1 |

Organism: Homo sapiens
Assay: Selectivity ratio of Ki for amyloid beta(1 to 42) to Ki for human Tau

| Ratio Ki | SMILES |
| --- | --- |
| 7.8 | CN(C)c1ccc(C=C2C(=O)Nc3ccc(I)cc32)cc1 |
| 1.03 | CNc1ccc(/C=C2\Nc3ccc(I)cc3C2=O)cc1 |
| 3.54 | CNc1ccc(C=C2C(=O)Nc3ccc(I)cc32)cc1 |
| 1.77 | CN(C)c1ccc(/C=C2\Nc3ccc(I)cc3C2=O)cc1 |

Molecular target: Microtubule-associated protein tau (Homo sapiens, UniProt P10636)
Assay: Binding affinity to human Tau aggregates after 30 mins by Thioflavin-S-based fluorescence assay

Sequence of Microtubule-associated protein tau (P10636 whole entry): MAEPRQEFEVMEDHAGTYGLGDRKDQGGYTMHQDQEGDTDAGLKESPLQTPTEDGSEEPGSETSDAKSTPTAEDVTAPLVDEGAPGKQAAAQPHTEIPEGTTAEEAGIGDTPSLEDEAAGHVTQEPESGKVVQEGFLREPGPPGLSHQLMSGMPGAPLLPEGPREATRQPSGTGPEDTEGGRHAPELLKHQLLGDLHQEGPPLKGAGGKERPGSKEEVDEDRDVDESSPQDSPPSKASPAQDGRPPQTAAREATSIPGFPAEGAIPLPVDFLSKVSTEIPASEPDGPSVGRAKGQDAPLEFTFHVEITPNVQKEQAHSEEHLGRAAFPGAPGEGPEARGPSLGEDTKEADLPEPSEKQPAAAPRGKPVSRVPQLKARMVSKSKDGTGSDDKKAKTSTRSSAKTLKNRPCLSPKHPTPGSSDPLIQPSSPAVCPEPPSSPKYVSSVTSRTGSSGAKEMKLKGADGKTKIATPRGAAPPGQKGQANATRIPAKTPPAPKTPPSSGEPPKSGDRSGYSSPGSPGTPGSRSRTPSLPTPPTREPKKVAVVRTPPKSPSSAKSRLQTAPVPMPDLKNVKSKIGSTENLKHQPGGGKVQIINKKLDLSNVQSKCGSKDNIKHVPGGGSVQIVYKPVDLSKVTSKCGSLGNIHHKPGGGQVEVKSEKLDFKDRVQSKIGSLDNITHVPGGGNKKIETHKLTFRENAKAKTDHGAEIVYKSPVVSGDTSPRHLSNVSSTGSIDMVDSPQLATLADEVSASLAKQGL

| Ki [µM] | SMILES |
| --- | --- |
| 0.599 | CN(C)c1ccc(C=C2C(=O)Nc3ccc(I)cc32)cc1 |
| 0.112 | CNc1ccc(/C=C2\Nc3ccc(I)cc3C2=O)cc1 |
| 1.43 | CNc1ccc(C=C2C(=O)Nc3ccc(I)cc32)cc1 |
| 0.017 | CN(C)c1ccc(/C=C2\Nc3ccc(I)cc3C2=O)cc1 |

Organism: Homo sapiens
Assay: Binding affinity to neurofibrillary tangles in entorhinal cortex of alzheimer disease patient after 10 mins by Thioflavin-S-based fluorescence microscopy
Type: tissue-based

| Activity | SMILES |
| --- | --- |
| Active | CN(C)c1ccc(/C=C2\Nc3ccc(I)cc3C2=O)cc1 |
